Results on one molecule are retold here after publication PMC3229304 (2011).

Molecules are shown by their SMILES.

This test addresses KDM5B/JARID1B/PLU-1 (Homo sapiens, UniProt Q9UGL1). The test is described as follows: in vitro histone demethylase inhibition, Ki. It is filed as biochemical.

KDM5B/JARID1B/PLU-1, sequence (Q9UGL1 whole entry): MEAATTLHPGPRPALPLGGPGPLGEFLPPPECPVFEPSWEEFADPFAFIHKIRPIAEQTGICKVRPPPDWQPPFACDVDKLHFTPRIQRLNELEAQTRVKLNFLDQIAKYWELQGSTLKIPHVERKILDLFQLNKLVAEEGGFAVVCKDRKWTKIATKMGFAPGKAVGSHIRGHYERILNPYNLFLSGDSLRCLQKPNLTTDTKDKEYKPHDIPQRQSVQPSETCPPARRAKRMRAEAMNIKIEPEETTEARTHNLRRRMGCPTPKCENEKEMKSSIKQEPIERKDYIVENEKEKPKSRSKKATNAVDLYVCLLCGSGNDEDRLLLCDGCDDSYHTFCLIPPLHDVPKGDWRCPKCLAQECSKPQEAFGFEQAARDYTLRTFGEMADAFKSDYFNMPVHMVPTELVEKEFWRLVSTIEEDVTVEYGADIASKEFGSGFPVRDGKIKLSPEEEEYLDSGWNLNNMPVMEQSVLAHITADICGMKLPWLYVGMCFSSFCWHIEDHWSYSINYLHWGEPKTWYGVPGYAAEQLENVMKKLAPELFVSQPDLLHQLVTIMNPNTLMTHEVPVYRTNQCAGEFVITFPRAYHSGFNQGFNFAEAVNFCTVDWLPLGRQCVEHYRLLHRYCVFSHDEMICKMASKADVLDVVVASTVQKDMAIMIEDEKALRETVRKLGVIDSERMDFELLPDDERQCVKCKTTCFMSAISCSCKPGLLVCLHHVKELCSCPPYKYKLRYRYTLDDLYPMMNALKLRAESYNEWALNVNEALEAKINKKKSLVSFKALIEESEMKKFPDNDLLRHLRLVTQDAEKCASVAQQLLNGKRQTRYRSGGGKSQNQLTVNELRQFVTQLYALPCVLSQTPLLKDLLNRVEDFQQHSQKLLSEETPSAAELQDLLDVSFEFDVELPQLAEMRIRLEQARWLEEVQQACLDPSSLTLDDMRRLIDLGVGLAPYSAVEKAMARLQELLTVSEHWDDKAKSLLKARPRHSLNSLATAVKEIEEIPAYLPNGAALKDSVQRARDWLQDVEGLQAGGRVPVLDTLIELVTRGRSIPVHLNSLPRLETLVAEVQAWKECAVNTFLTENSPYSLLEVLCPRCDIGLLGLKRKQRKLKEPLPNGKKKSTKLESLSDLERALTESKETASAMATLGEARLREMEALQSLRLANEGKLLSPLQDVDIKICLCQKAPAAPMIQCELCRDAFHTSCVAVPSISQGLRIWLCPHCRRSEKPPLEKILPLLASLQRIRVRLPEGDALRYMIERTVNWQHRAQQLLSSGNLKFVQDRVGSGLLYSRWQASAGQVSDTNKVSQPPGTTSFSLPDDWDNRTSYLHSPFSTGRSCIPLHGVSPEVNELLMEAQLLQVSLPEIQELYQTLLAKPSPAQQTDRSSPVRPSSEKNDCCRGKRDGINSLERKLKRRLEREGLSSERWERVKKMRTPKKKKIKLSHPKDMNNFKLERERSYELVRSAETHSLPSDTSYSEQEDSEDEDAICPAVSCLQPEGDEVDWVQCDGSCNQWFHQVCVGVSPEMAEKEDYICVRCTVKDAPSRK

Turning to `O=C(O)CNC(=O)C(=O)O` [N-oxalylglycine], the Ki amounted to 653 ± 128 µM.

By Ki is commonly meant a dissociation constant, usually derived from enzyme kinetics or from competition with a known ligand.
